Data from publication PMC12165799, “Antimicrobial peptide developed with machine learning sequence optimization targets drug resistant Staphylococcus aureus in mice” (The Journal of Clinical Investigation, 2025).

What was measured:
S. aureus MW2 = assay: Cryo-electron microscopy; format: cell-based, Staphylococcus aureus; conditions: 80 μg/mL, 60 minutes
Description: 506 containing 50 µl BacTiter-Glo reagent (Promega, WI, USA) and measured plate luminescence as
507 previously described (18) after 5 min of incubation at room temperature.
509 Cryo-electron microscopy (cryo-EM)
510 We statically treated 10 ml of an exponential-phase S. aureus MW2 culture (OD600 = 0.4,
For imaging, we vitrified the
512 bacteria cells using Leica EM-GP2® plunger (Leica Microsystems, Wetzlar, Germany) on R2×2
513 Quantifoil® carbon holey film (Micro Tools GmbH, Jena, Germany) grids as previously described
514 (19). Briefly, we applied a 4 µl of bacterial suspensions to the grids pre-cleaned in a Gatan Solarus
515 950 plasma cleaner (Gatan, Inc, USA), blotted with filter paper, and plunged into liquid ethane.
516 We stored the frozen grids under liquid nitrogen until used for microscopy. We then transferred
517 the grids into a JEM 2200FS electron microscope (JEOL Ltd, Akishima, Japan) operating at 200
518 keV and equipped with a field emission gun, in-column electron energy filter (omega type) and a
519 DE20 direct electron detector camera (Direct Electron Inc., CA, USA). We used a 20 eV energy
520 slit width during data acquisition. Total electron dose/image was ~15 electrons/Å2. Image pixel
521 size was 3.66 Å on the specimen scale.
523 Scanning electron microscopy (SEM)
524 We followed an established protocol with minor modification to perform SEM imaging of […]

[1] = tested on: S. aureus MW2 skin infection; assay: Skin-abraded murine infection, established infection model, bacterial load; format: in vivo, mice; design: Bacterial load from skin specimens, established infection model / bacterial load in skin, Sup. Fig. 12: unit not given here; conditions: for Reduction of S. aureus MW2 vs vehicle, established infection model: single dose 24 hours after inoculation, n = 8; for bacterial load in skin, Sup. Fig. 12: mice
Description: (§1) 599 In vivo murine skin infection and treatment
(§2) 600 We used a topical skin-abraded murine infection model with minor modifications to test
(§3) 601 the in vivo efficacy of the CIT-8 peptide (25). We performed all mouse studies following the
(§4) 602 protocol approved by the Institutional Animal Care and Use Committee. In brief, we anesthetized
(§5) 603 female C57BL/6 mice (6 weeks) (Jackson Laboratory, Bar Harbor, ME, USA) with ketamine-
(§6) 604 xylazine (90 mg/kg ketamine and 10 mg/kg xylazine) via intraperitoneal injection. We shaved the
(§7) 605 dorsal side of the mice in the middle of the back (area=2 cm2). To disrupt skin integrity, we tape-
(§8) 606 stripped with Tensoplast® seven times in succession, replacing the tape each time, resulting in
(§9) 607 visibly damaged skin. We infected the damaged skin area with 1 × 10^7 CFU of S. aureus MW2
(§10) 608 (exponential phase bacteria in PBS) with an inoculum of 50 µl using a pipette tip. Ten minutes
(§11) 609 (prophylactic model) and 24 h (established model) after bacterial inoculation, we applied 30 mg
(§12) 610 of 1 and 2% (w/w) CIT-8 ointment in a white petroleum jelly base (Cat no. 19-090-843, Fisher
(§13) 611 Scientific, MA, USA) to the skin. We also included animal groups treated with only petroleum
(§14) 612 jelly or with 2% commercial mupirocin ointment as negative and positive controls, respectively.
(§15) 613 For pain management, we used the analgesic buprenorphine SR (0.05 mg/kg).
(§16) 614 After 24 h of treatment, we euthanized the animals, separated the skin from the underlying
(§17) 615 fascia and muscle tissue, and excised about 2 cm2 of skin from the infected area. We ground the
(§18) 616 skin in 1ml of PBS buffer (Gibco, MD, USA). We serially diluted 100 µl of the solution in PBS
(§19) 617 and plated it on Remel™ TSA plates (Fisher, MA, USA) to estimate viable colony counts after 18
(§20) 618 h of incubation at 37 °C. Further, we added 10 µl of EDTA-Free, protease inhibitor cocktail Set III
(§21) 619 (Millipore Sigma, MA, USA) to 500 µl of the ground skin PBS solution for cytokine estimation.
(§22) 620 The Cytokine Core, LLC (Indianapolis, IN, USA) performed the cytokine concentration analysis

[2] = tested on: S. aureus MW2 skin infection; assay: Skin-abraded murine infection, prophylactic (acute) model, bacterial load; format: in vivo, mice; conditions: for Reduction of S. aureus MW2 burden vs vehicle, prophylactic model: single treatment 10 minutes after inoculation, n = 12; for Reduction of S. aureus MW2 burden, repeat of prophylactic model: n = 8
Description: as §1, §2, §3, §4, §5, §6, §7, §8, §9, §10, §11, §12, §13, §14, §15, §16, §17, §18, §19, §20, §21, §22

For H-GLFKVIKKLLKVI-NH2 [CIT-8], the “Cryo-EM appearance of treated cells” value (S. aureus MW2) was “membrane disruption and perturbation”, the “Bacterial load from skin specimens, established infection model” value (“Bacterial load … established infection model” for short) ([1]; 1% ointment 24 hours after infection, animal 1) was 573476702 and the “Bacterial load … established infection model” value ([1]; 1% ointment 24 hours after infection, animal 2) was 722891566. For the same substance, the “Bacterial load … established infection model” value ([1]; 1% ointment 24 hours after infection, animal 3) was 990099010, the “Bacterial load … established infection model” value ([1]; 1% ointment 24 hours after infection, animal 4) was 73752712 and the “Bacterial load … established infection model” value ([1]; 1% ointment 24 hours after infection, animal 5) was 440528634. For the same substance, the “Bacterial load … established infection model” value ([1]; 1% ointment 24 hours after infection, animal 6) was 407784986, the “Bacterial load … established infection model” value ([1]; 1% ointment 24 hours after infection, animal 7) was 586080586 and the “Bacterial load … established infection model” value ([1]; 1% ointment 24 hours after infection, animal 8) was 58441558. For the same substance, the “Reduction of S. aureus MW2 vs vehicle, established infection model” value ([1]; 1% w/w ointment) was 0.85 log, the “bacterial load in skin, Sup. Fig. 12” value ([1]; 1%, animal 1) was 3454231 and the “bacterial load in skin, Sup. Fig. 12” value ([1]; 1%, animal 2) was 9594096. For the same substance, the “bacterial load in skin, Sup. Fig. 12” value ([1]; 1%, animal 3) was 4268293, the “bacterial load in skin, Sup. Fig. 12” value ([1]; 1%, animal 4) was 37383178 and the “bacterial load in skin, Sup. Fig. 12” value ([1]; 1%, animal 5) was 4592423. For the same substance, the “bacterial load in skin, Sup. Fig. 12” value ([1]; 1%, animal 6) was 4992200, the “bacterial load in skin, Sup. Fig. 12” value ([1]; 1%, animal 7) was 5211726 and the “bacterial load in skin, Sup. Fig. 12” value ([1]; 1%, animal 8) was 8092486. For the same substance, the “Bacterial load … established infection model” value ([1]; 2% ointment 24 hours after infection, animal 1) was 198248802, the “Bacterial load … established infection model” value ([1]; 2% ointment 24 hours after infection, animal 2) was 54495913 and the “Bacterial load … established infection model” value ([1]; 2% ointment 24 hours after infection, animal 3) was 66006601. For the same substance, the “Bacterial load … established infection model” value ([1]; 2% ointment 24 hours after infection, animal 4) was 87431694, the “Bacterial load … established infection model” value ([1]; 2% ointment 24 hours after infection, animal 5) was 13757524 and the “Bacterial load … established infection model” value ([1]; 2% ointment 24 hours after infection, animal 6) was 41237113. For the same substance, the “Bacterial load … established infection model” value ([1]; 2% ointment 24 hours after infection, animal 7) was 64923354, the “Bacterial load … established infection model” value ([1]; 2% ointment 24 hours after infection, animal 8) was 70546737 and the “Reduction of S. aureus MW2 vs vehicle, established infection model” value ([1]; 2% w/w ointment) was 1.8 log. The “bacterial load in skin, Sup. Fig. 12” value ([1]; 2%, animal 1) was 3143418, the “bacterial load in skin, Sup. Fig. 12” value ([1]; 2%, animal 2) was 1148325 and the “bacterial load in skin, Sup. Fig. 12” value ([1]; 2%, animal 3) was 935065. The “bacterial load in skin, Sup. Fig. 12” value ([1]; 2%, animal 4) was 898204, the “bacterial load in skin, Sup. Fig. 12” value ([1]; 2%, animal 5) was 917874 and the “bacterial load in skin, Sup. Fig. 12” value ([1]; 2%, animal 6) was 1020408. The “bacterial load in skin, Sup. Fig. 12” value ([1]; 2%, animal 7) was 1787044, the “bacterial load in skin, Sup. Fig. 12” value ([1]; 2%, animal 8) was 4694836 and the “Bacterial load from skin specimens, prophylactic model” value (shortened to “Bacterial load … prophylactic model”) ([2]; 1% ointment 10 minutes after infection, animal 1) was 11428571. The “Bacterial load … prophylactic model” value ([2]; 1% ointment 10 minutes after infection, animal 2) was 16000000, the “Bacterial load … prophylactic model” value ([2]; 1% ointment 10 minutes after infection, animal 3) was 1555556 and the “Bacterial load … prophylactic model” value ([2]; 1% ointment 10 minutes after infection, animal 4) was 3636364. For the same substance, the “Bacterial load … prophylactic model” value ([2]; 1% ointment 10 minutes after infection, animal 5) was 6000000, the “Bacterial load … prophylactic model” value ([2]; 1% ointment 10 minutes after infection, animal 6) was 3111111 and the “Bacterial load … prophylactic model” value ([2]; 1% ointment 10 minutes after infection, animal 7) was 2250000. The “Bacterial load … prophylactic model” value ([2]; 1% ointment 10 minutes after infection, animal 8) was 2200000, the “Bacterial load … prophylactic model” value ([2]; 1% ointment 10 minutes after infection, animal 9) was 4210526 and the “Bacterial load … prophylactic model” value ([2]; 1% ointment 10 minutes after infection, animal 10) was 6153846. For the same substance, the “Bacterial load … prophylactic model” value ([2]; 1% ointment 10 minutes after infection, animal 11) was 4000000, the “Bacterial load … prophylactic model” value ([2]; 1% ointment 10 minutes after infection, animal 12) was 6060606 and the “Reduction of S. aureus MW2 burden vs vehicle, prophylactic model” value ([2]; 1% w/w ointment) was 1.7 log. For the same substance, the “Reduction of S. aureus MW2 burden, repeat of prophylactic model” value ([2]; 1% w/w) was 1.4 log, the “Bacterial load … prophylactic model” value ([2]; 2% ointment 10 minutes after infection, animal 1) was 1000000 and the “Bacterial load … prophylactic model” value ([2]; 2% ointment 10 minutes after infection, animal 2) was 1142857. For the same substance, the “Bacterial load … prophylactic model” value ([2]; 2% ointment 10 minutes after infection, animal 3) was 2400000, the “Bacterial load … prophylactic model” value ([2]; 2% ointment 10 minutes after infection, animal 4) was 444444 and the “Bacterial load … prophylactic model” value ([2]; 2% ointment 10 minutes after infection, animal 5) was 1684211. The “Bacterial load … prophylactic model” value ([2]; 2% ointment 10 minutes after infection, animal 6) was 4000000, the “Bacterial load … prophylactic model” value ([2]; 2% ointment 10 minutes after infection, animal 7) was 666667 and the “Bacterial load … prophylactic model” value ([2]; 2% ointment 10 minutes after infection, animal 8) was 923077. The “Bacterial load … prophylactic model” value ([2]; 2% ointment 10 minutes after infection, animal 9) was 909091, the “Bacterial load … prophylactic model” value ([2]; 2% ointment 10 minutes after infection, animal 10) was 4923077 and the “Bacterial load … prophylactic model” value ([2]; 2% ointment 10 minutes after infection, animal 11) was 3666667. The “Bacterial load … prophylactic model” value ([2]; 2% ointment 10 minutes after infection, animal 12) was 1200000, the “Reduction of bacterial burden, mouse model of MRSA skin infection” value ([2]; 2% w/w in petroleum jelly (abstract)) was 2.3 log10 and the “Reduction of S. aureus MW2 burden vs vehicle, prophylactic model” value ([2]; 2% w/w ointment) was 2.3 log. For the same substance, the “Reduction of S. aureus MW2 burden, repeat of prophylactic model” value ([2]; 2% w/w) was 2.1 log.
